Source: patent US5874402A, “Use of cell membrane permeants in the treatment of cellular proliferative diseases” (Matrix Pharmaceutical, Inc., priority 1997, dated 1999)

Assays:
RIF-1 tumors = assay: RIF-1 murine tumor growth delay after intratumoral injection (days to 4× tumor volume; T/C); type: in vivo, murine (C3H mice); parameters: key to Treated (Table 7 column): days for tumors to reach 4x baseline volume
Procedure: (§1) When the introduced tumors reached 100 mm^3, the mice were ready for testing. During the course of the experiments, the treated and control tumors were measured three times per week by Vernier calipers and the tumor volumes were calculated using the following formula: […]
where D1 -D3 are tumor diameters in millimeters. The number of days for tumors to reach four times (4×) their baseline volume was used as a parameter of treatment effectiveness. Therefore, a longer delay in tumor growth meant greater antitumor efficacy.

C3H mice = assay: Lethal toxicity (deaths) after intratumoral injection in RIF-1 tumor-bearing C3H mice; type: in vivo
Procedure: as §1, with “For each of the following experiments, transplantable murine fibrosarcoma RIF-1 tumors were grown intradermally in the flank of 3-7 month old female C3H mice (2×10^5 cells were injected). When” for “When”

ovarian cancer cells = settings: in vitro; cells first exposed to digitonin; cited from earlier work
[1] = Table 6, agent 40 mg/kg (BFA: DMSO as solvent), saponin 10 mg/kg 1 hr prior where combined
[2] = Table 7, dose printed 10, 4 mg/kg (saponin, vinblastine)

Compound: C[C@H]1CCC/C=C/[C@@H]2C[C@H](O)C[C@H]2[C@H](O)/C=C/C(=O)O1 [Brefeldin A(BFA), Brefeldin A]
- T/C (ratio of tumor growth delay of treated tumors to untreated controls) (RIF-1 tumors; [1]): 2.6

Compound: C=C1O[C@@](CO)(n2cnc3c(N)ncnc32)[C@H](O)[C@@H]1O [Decoyinine]
- T/C (ratio of tumor growth delay of treated tumors to untreated controls) (RIF-1 tumors; [1]): 1.0

Compound: C[C@H]1O[C@@H](O[C@H]2[C@@H](O)C[C@H](O[C@H]3[C@@H](O)C[C@H](O[C@H]4CC[C@@]5(C)[C@H](CC[C@@H]6[C@@H]5CC[C@]5(C)[C@@H](C7=CC(=O)OC7)CC[C@]65O)C4)O[C@@H]3C)O[C@@H]2C)C[C@H](O)[C@@H]1O [Digitoxin]
- T/C (ratio of tumor growth delay of treated tumors to untreated controls) (RIF-1 tumors; Table 5, permeant 40 mg/kg, no TNF): 0.99

Compound: O=c1c(-c2ccc(O)cc2)coc2cc(O)cc(O)c12 [Genistein]
- T/C (ratio of tumor growth delay of treated tumors to untreated controls) (RIF-1 tumors; Table 6, agent 80 mg/kg, saponin 10 mg/kg 1 hr prior where combined): 1.1

Compound: Cc1ccc(C(=O)Nc2ccc(S(=O)(=O)O)c3cc(S(=O)(=O)O)cc(S(=O)(=O)O)c23)cc1NC(=O)c1cccc(NC(=O)Nc2cccc(C(=O)Nc3cc(C(=O)Nc4ccc(S(=O)(=O)O)c5cc(S(=O)(=O)O)cc(S(=O)(=O)O)c45)ccc3C)c2)c1 [Suramin]
- T/C (ratio of tumor growth delay of treated tumors to untreated controls) (RIF-1 tumors; Table 6, agent 20 mg/kg, saponin 10 mg/kg 1 hr prior where combined): 1.0

Compound: N#C/C(=C\c1ccc(O)c(O)c1)C(N)=S [Tyrphostin 47]
- T/C (ratio of tumor growth delay of treated tumors to untreated controls) (RIF-1 tumors; Table 6, agent 60 mg/kg, EtOH as solvent, saponin 10 mg/kg 1 hr prior where combined): 1.1

Compound: CC[C@]1(O)C[C@@H]2CN(CCc3c([nH]c4ccccc34)[C@@](C(=O)OC)(c3cc4c(cc3OC)N(C)[C@H]3[C@@](O)(C(=O)OC)[C@H](OC(C)=O)[C@]5(CC)C=CCN6CC[C@]43[C@@H]65)C2)C1 [Vinblastine(VLB), Vinblastine]
- Toxicity Deaths/# mice (C3H mice; [2]): 0/5
- Lethal toxic side effects, in words (C3H mice; vinblastine with saponin and collagen gel matrix (Table 7)): decreasing the observed lethal toxic side effects
- Treated (Table 7 column) (RIF-1 tumors; [2]): 14.1 ± 1.57
- Efficacy of vinblastine, in words (RIF-1 tumors; in conjunction with saponin (Table 7)): greatly enhances the efficacy of the vinblastine
- Efficacy of vinblastine, in words (RIF-1 tumors; with saponin and collagen gel matrix (Table 7)): further enhances the efficacy of vinblastine

Compound: N.N.[Cl][Pt][Cl] [cisplatin]
- Uptake of cisplatin by ovarian cancer cells (ovarian cancer cells): enhanced uptake

Compound: Lysolecithin(type 1)
- T/C (ratio of tumor growth delay of treated tumors to untreated controls) (RIF-1 tumors; Table 5, permeant 10 mg/kg, no TNF): 1.27

Compound: Neomycin sulfate [Neomycin sulfate (NS)]
- T/C (ratio of tumor growth delay of treated tumors to untreated controls) (RIF-1 tumors; [1]): 0.7
